Key:
HIF and VHL target genes = assay: Gene expression profiling and gene set enrichment analysis (GSEA) of compound treated 786-O cells; format: cell-based, human; settings: for regulation of HIF target genes: 786-O cells at experimentally determined IC50 concentrations; for NES, gene set PRC3, VHL null (markers of PRC3 cells compared to WT8 cells) / NES, gene set Schofield, HIF (validated HIF-regulated genes) / NES, gene set Staller, VHL WT (markers of VHL WT cells compared to VHL null cells) / NES, gene set Staller, VHL null (markers of VHL null cells compared to VHL WT cells) / NES, gene set WT8, VHL WT (markers of WT8 cells compared to PRC3 cells): 786-O cells, GSEA normalized enrichment score
Protocol: RNA from compound treated 786-O cells was isolated as described for qRT-PCR experiments. Labeled cRNA was prepared and hybridized to Affymetrix U133 Plus 2.0 microarrays according to the manufacturer's protocols. Scans were processed using Affymetrix MASS software and median scaled. Gene expression values less than a minimum threshold of 20 or a maximum threshold of 16000 were set to 20 and 16000, respectively. Genes with minimal variation across the dataset were discarded (maximum/minimum<3 or maximum−minimum<100). Class neighbors were identified with GenePattern software using the signal to noise metric (Golub et al., 1999). Hierarchical clustering was performed using dCHIP software. Gene set enrichment analysis was performed as described (Mootha et al., 2003) and significance was determined by permutation of the gene labels. Gene expression signatures were analyzed using the Connectivity Map webtool (build 01). Full details of the Connectivity Map dataset and analytics are provided elsewhere (Lamb et al., 2006). For PGJ2 expression analysis, raw gene-expression data have GEO series accession number GSE13818 and compound signatures from which non-HG-U133A probe sets were removed (see Table 6) were used to query the Connectivity Map (build 02).
Total RNA was extracted from stable 786-O derived VHL-reconstituted (WT8), HIF-2a knock down (pTR) and their respective vector only control (PRC3 and pTV) cells and labeled cRNA was hybridized to oligonucleotide arrays. […] Compound-treated parental 786-O cells were subjected to the same analysis. […] The gene set enrichment analysis (GSEA) algorithm was used to investigate whether the compounds affected the expression of genes identified as VHL and HIF targets in other cell types (Mootha et al., 2003).

IRP1 = IRP1 (Homo sapiens, UniProt P21399); assay: HIF-2a activity (EGLN3 qRT-PCR) in IRP knock down lines; settings: 786-O IRP knock down lines
[1] = test system: 7SV (SV40-luciferase) cells; assay: SV40-luciferase control reporter assay in 786-O derived 7SV cells; format: cell-based, human; settings: 48 hours
Protocol: The screen for small molecule inhibitors was performed in the Institute for Chemical and Cellular biology, Harvard Medical School. 7SV or 7H4 cells were plated onto 384-well plates. The next day compounds were added robotically to the medium, to a final concentration of approximately 10 μM. 24 hours later, media was aspirated and Passive Lysis Buffer (Promega) and Luciferase Assay Reagent II (Promega) were added. Luciferase activity was measured with an Analyst plate reader (LJL Biosystems). All experiments were performed in duplicate and the identity of lead compounds was confirmed by mass spectroscopy
Luciferase assays were performed using the Promega's Dual-luciferase Assay Reporter System (Promega, E1910) according to the manufacturer's instructions. Counts obtained from transient transfections were normalized for co-transfected Renilla luciferase. Stable clones were normalized to medium only treated wells.
Functionally validated HRE and control SV40 luciferase reporter constructs were stably introduced into VHL-deficient 786-O cells to generate 7H4 and 7SV lines, respectively (see FIG. 8A). […]
To validate the connectivity map-derived prediction that PGJ2 is involved in HIF signaling, the inventors treated HRE-luciferase expressing 786-O cells (7H4) and SV40-luciferase expressing control cells (7SV) with increasing doses of PGJ2. […] Luciferase activity was measured at 48 hours.

HIF-2a = assay: Western blot for HIF-2a protein expression; format: cell-based, human; settings: A498 and UMRC2 cells
HIF-2a target genes = assay: HIF-2a target gene expression (Glut-1 Western blot, VEGF and IGFBP3 ELISA, EGLN3 qRT-PCR); format: cell-based, human; settings: treated 786-O cells
Protocol: ID NO: 1) and [NT] […] ID NO: 3) and [NT] ID NO: 4) for […] ID NO: 5) and [NT] ID NO: 6) for Transferrin Receptor 1 ([…] ID NO: 7) and [NT] ID NO: 8) for […] ID NO: 9) and [NT] ID NO: 10) for […] ID NO. 11) and [NT] ID NO: 12) for EGLN3. […] ID NO: 13) and [NT] ID NO: 14). […] VEGF or IGFBP3 ELISA was performed on the conditioned supernatant using Quantikine immunoassay kits (R&D Systems, DVE00 for VEGF, DGB300 for IGFBP3). […] Hypoxia stabilized HIF-2a in VHL-reconstituted WT8 cells, but treatment with compounds diminished hypoxia-induced HIF-2a expression (FIG. 3C).

IRP2 = IRP2 expression in treated cells; format: cell-based, human
Source text: However, IRP2 contributes very little—if at all—to the total IRP bound to the HIF2a IRE (Zimmer et al., 2008).

786-O cells = assay: Global translation (35S loading control, polysome analysis); format: cell-based, human
Protocol: DMSO-, rapamycin- or PGJ2-treated 786-O cells were harvested from 10 cm plates for each polysomal analysis. Confluent cells were harvested and lysed in 300 μL ofRSB [10 mmol/L NaCl, 10 mmol/L Tris-HCl (pH 7.4), 15 mmol/L MgCl2] containing 100 μg/mL heparin, 1.2% Triton X-100, and 0.12% deoxycholate. Nuclei were pelleted for 3 min in a microcentrifuge at 4° C. The 300-μL extract was layered over 11.5 mL of a 15% to 45% (wt/wt) sucrose gradient with a 0.5-mL cushion of 45% sucrose. The gradients were centrifuged at 37,000 rpm for 2.5 h in an SW 41 (Beckman) rotor at 4° C. After centrifugation, the A260 was continuously monitored and recorded across the gradient using a Foxy Jr. Density Gradient fractionation system and UA-6 UV/VIS Detector (ISCO, Inc.).
To determine if PGJ2 decreases translation of the HIF2a message, the inventors evaluated the synthesis rate and stability of the newly synthesized HIF2a by an ^35S-methionine pulse chase experiment on PGJ2 or vehicle only DMSO treated 786-O cells. […] Loading control is 1/1000th of the cell lysate used in the respective immunoprecipitation directly loaded into an SDS-PAGE gel.

IRP1, sequence (P21399 whole entry): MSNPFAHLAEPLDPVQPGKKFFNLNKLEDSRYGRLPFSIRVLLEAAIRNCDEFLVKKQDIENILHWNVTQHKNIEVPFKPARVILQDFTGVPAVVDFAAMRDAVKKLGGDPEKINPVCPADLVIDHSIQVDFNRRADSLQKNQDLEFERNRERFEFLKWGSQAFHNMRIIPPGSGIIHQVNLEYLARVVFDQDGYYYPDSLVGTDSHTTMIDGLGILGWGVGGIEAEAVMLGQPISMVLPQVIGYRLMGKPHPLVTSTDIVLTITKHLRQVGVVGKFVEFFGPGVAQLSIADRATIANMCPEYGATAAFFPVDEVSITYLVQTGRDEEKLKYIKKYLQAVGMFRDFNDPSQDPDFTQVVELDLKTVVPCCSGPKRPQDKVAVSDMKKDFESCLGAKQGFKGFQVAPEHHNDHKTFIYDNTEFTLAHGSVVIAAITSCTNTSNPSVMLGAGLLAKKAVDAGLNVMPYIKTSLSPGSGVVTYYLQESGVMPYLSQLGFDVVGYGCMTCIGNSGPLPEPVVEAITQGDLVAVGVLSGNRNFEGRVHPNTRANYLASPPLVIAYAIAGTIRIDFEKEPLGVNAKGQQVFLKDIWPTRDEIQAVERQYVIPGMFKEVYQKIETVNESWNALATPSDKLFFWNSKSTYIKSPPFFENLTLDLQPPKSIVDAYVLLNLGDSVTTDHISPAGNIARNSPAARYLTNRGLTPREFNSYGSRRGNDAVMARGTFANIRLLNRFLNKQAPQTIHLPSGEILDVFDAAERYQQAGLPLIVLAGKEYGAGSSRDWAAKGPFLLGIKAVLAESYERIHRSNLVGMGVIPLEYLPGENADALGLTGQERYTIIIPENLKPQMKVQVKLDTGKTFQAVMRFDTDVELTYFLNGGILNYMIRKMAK

SMILES | regulation of HIF target genes (HIF and VHL target genes) | NES, gene set PRC3, VHL null (markers of PRC3 cells compared to WT8 cells) (HIF and VHL target genes) | NES, gene set Schofield, HIF (validated HIF-regulated genes) (HIF and VHL target genes) | NES, gene set Staller, VHL WT (markers of VHL WT cells compared to VHL null cells) (HIF and VHL target genes) | NES, gene set Staller, VHL null (markers of VHL null cells compared to VHL WT cells) (HIF and VHL target genes) | NES, gene set WT8, VHL WT (markers of WT8 cells compared to PRC3 cells) (HIF and VHL target genes) | effect on HIF-2a activity when IRP1 is knocked down (IRP1) | SV40-driven luciferase activity [1] | HIF2a protein expression in other VHL-deficient renal cell carcinoma lines (HIF-2a) | expression of HIF-2a target genes (Glut-1, VEGF, IGFBP3, EGLN3) (HIF-2a target genes) | IRP2 expression (IRP2) | global cellular translation (35S-methionine loading control) (786-O cells; 10 μM) | ribosomes actively engaged in translation (polysome analysis) (786-O cells; 24 hours)
C/C(=C\c1ccccc1)C(=O)CCN(C)C.Cl [Compound 40, 5-(dimethylamino)-2-methyl-1-phenyl-1-penten-3-one hydrochloride] | coordinately downregulate HIF target genes | NES: −3.50 | NES: −1.65 | NES: −1.75 | NES: −2.48 | NES: −1.86 |  |  |  |  |  |  | 
COc1ccc(O)c(/C=C/C(=O)c2c(O)cc(C)oc2=O)c1 [Compound 41, 4-hydroxy-3-[3-(2-hydroxy-5-meoxyphenyl)acryloyl]-6-methyl-2H-pyran-2-one] | coordinately downregulate HIF target genes | NES*: −2.98 | NES: −1.62 | NES: 1.62 | NES: −2.42 | NES: 1.58 |  |  |  |  |  |  | 
COC(=O)c1sccc1N/N=C(/C#N)S(C)(=O)=O [Compound 76, methyl 3-{2-[cyano(methylsulfonyl)methylene] hydrazino}thiophene-2-carboxylate] | coordinately downregulate HIF target genes | NES: −3.15 | NES: −1.78 | NES: 1.53 | NES: −2.45 | NES: 1.88 | inhibition of IRP1 is sufficient to block effect of compounds on HIF-2a activity |  |  |  |  |  | 
CC1(C)CC(=O)C=C(Sc2ccc(C#N)cc2[N+](=O)[O-])S1 [Compound 77, 4-[(2,2-dimethyl-4-oxo-3,4-dihydro-2H-thiin-6-yl)thio]-3-nitrobenzonitrile] | coordinately downregulate HIF target genes | NES: −3.15 | NES: −1.78 | NES: 1.53 | NES: −2.45 | NES: 1.88 | inhibition of IRP1 is sufficient to block effect of compounds on HIF-2a activity |  |  |  |  |  | 
CCCCC/C=C/C=C1/C(=O)C=C[C@@H]1C/C=C\CCCC(=O)O [PGJ2, 15-deoxy-Δ^12,14-prostaglandin J2] |  |  |  |  |  |  |  | not affected | decreased HIF2a protein expression | decrease | minimally increased | does not globally decrease cellular translation | little effect on the number of ribosomes actively engaged in translation

— patent publication US10881656B2, “HIF inhibitors and use thereof” (The General Hospital Corporation, priority 2008, dated 2021)
